Assay results taken from article PMC9090609 (RSC Advances, 2018).

System: E.c.-ALDC (acetolactate decarboxylase from Enterobacter cloacae)
Test: circular dichroism at […] nm, formation of
Type: biochemical
Conditions: pH 6, 30 °C; racemic substrate 5.3-53.4 mM

Km: 12.2 mM
Structure (SMILES): CC(=O)C(C)(O)C(=O)O (racemic) [(±)-AL]
